Experimental data reported in US11275071B2, “Sensor dyes for real-time sensing of metal ions in aqueous environments” (UWM Research Foundation, Inc., priority 2015, dated 2022).
“Also recorded” adds a separate entry of the source. Where two headings read alike, the source gives them in different places.

How the values were obtained:
[1] = Decomposition of metal-QAR complexes under acidic conditions, overall; assay type: physicochemical
Procedure: (§1) The dissociation constant under acidic conditions and the pKA for the para-hydroxy group on the metal-QAR complexes was determined. A set of samples containing QAR and a single metal standard, were prepared in a pH buffer containing 2 mM Triton X-100 surfactant. […] The absorption spectrum of each sample was recorded with the Perkin-Elmer Lambda 650 spectrophotometer.
(§2) Analysis was performed in ReactLab Equilibria. The protonation of the para-hydroxy groups was modelled using the first reaction. Here, the pH micro-constants (stepwise protonation of each dye molecule in the complex) could not be resolved, so the two para-hydroxy groups in the complex were treated as both protonated or both deprotonated in the model. The decomposition of the complex under acidic conditions was modelled using the second reaction. M(QAR)2^2−+2H^+→M(QAR)2H2 M(QAR)2H2+2H^+→[…]+2H3QAR^+
Decomposition of the metal-QAR complexes occurs below pH 3. The dissociation constant is different for each metal. For example, copper has the highest resistance and zinc has the lowest resistance to decomplexation under acidic conditions. Also, this trend [Cu(II)>Co(II)>Ni(II)>Zn(II)] matches the trend in the binding affinities, and the two effects may be related to the specific interactions that occur in the binding of each metal. […]

[2] = Protonation states of metal-QAR complexes; assay type: physicochemical; conditions: M(QAR)2H2 decomposition under acidic conditions, midpoint of species distribution curve
Procedure: as §1, §2
The total uncertainty was estimated from the measurements involved in the experiment using rules of conventional error propagation (TABLE 7).

[3] = Response of QAR and PAR to metal ions at pH 7 (absorbance spectrum, colour); assay type: binding
Procedure: (§3) The response of QAR to different metal ions was measured to determine its selectivity and compared to another sensor (PAR), which has a similar structure. Samples were prepared with different metal standards at pH 7, and the absorbance spectrum of each sample was recorded (FIG. 6). Also, photographs of the samples are provided below to allow for a visual comparison (FIG. 7).
(§4) The spectra of QAR were compared to the spectrum of the free dyes, and the general response of QAR at pH 7 can be described as follows: […]

[4] = Response of QAR and PAR to metal ions at pH 7, overall comparison; assay type: binding
Procedure: as §3, §4

[5] = Formation and dissociation constants of QAR, titration with metal ion standard at pH 8.8; assay type: binding; conditions: for KF / KD: 1:2 complex; for KD: computed from formation constant; for log KF: M^2+ + 2HQAR^− → M(QAR)2^2− + 2H^+; for Kd: read-out: square root over (KD)
Procedure: The formation constants (KF) were determined for QAR and different metals. The relative binding affinities characterized the selectivity of the sensor, i.e. the sensor's preference for binding one metal over another. Also, the corresponding dissociation constants (KD) were computed from the formation constants. This metric yielded the lower performance limit of the sensor that is thermodynamically possible (for a given set of conditions), and it can provide the practical operating range of the sensor.
The absorbance spectra were recorded using a Perkin-Elmer Lambda 650 spectrophotometer while a QAR solution was titrated with a metal ion standard. Scout titrations were performed to obtain an estimate range for the KD. Then, the titration was performed with a sufficiently low initial dye concentration (approximately equal to the KD) for proper determination. Also, measurements were made using 10 cm longpath cuvettes. The increased pathlength compensated for the reduced dye concentration so measurements were made within the instrumental limitations (i.e. absorbance values greater than 0.05 absorbance units).
The dye solution was pH-buffered at such that only one protonated form of the free dye and complex is present. […] At pH 8.8, the following expression describes the metal-dye complex formation where HQAR^− predominates as the free dye and M(QAR)2^2 predominates as the metal complex, and minimal formation of metal hydroxides is expected. M^2++2HQAR^−→M(QAR)2^2−+2H^+
The data was analyzed in ReactLab Equilibria to determine the formation constant using the above model, and initial concentrations of HQAR and the respective metal. This software performs regression with the entire spectrum to calculate the formation constants specified in the model. Analysis was performed several times with different initial “guesses” for parameter values to ensure the algorithm yielded reproducible results.
The corresponding K values were calculated and are shown in the table below where the standard error from regression is given as the uncertainty values. The accuracy of the values is limited for cobalt and copper because the absorbance changes were too steep to properly capture the hyperbolic nature of the curve. And, the experimental conditions could not be adjusted to yield the same level of instrumental sensitivity and accuracy as the other metals. However, a relative comparison of the binding affinities is valid.

[6] = Protonation states of free QAR, pKA by absorption and ReactLab Equilibria (Example 29); assay type: physicochemical; conditions: free dye
Procedure: QAR has three protonation sites: The heterocyclic nitrogen in the quinoline moiety, and the para-hydroxyl group and the ortho-hydroxyl group in the resorcinol ring. The ortho-hydroxyl group is involved in binding with the metal.
The acid dissociation constants (pKA) and spectral profiles were determined for QAR. […] The data was analyzed using ReactLab Equilibria (JPlus Consulting Pty Ltd, Australia) to determine the resulting pKA values. QAR has three protonation sites, so four species were used for the analysis model. The pKA values were assigned using values from well-known molecules with a similar structure.
Error analysis was performed using the measurement uncertainties (pH meter and probe, temperature, etc.) and the conventional rules of error propagation. […] The total uncertainty was estimated from the error analysis (TABLE 5).

[7] = accuracy limited, with Co(II) ion
[8] = accuracy limited, with Cu(II) ion

## Oc1ccc(N=Nc2cccc3cccnc23)c(O)c1 [QAR, 4-(quinolin-8-yldiazenyl)benzene-1,3-diol]
[1]
  trend of resistance to decomplexation under acidic conditions: Cu(II)>Co(II)>Ni(II)>Zn(II)
[2]; Co(II)-QAR complex
  Acidic Dissociation: 1.593
[2]; Cu(II)-QAR complex
  Acidic Dissociation: 0.635
[2]; Ni(II)-QAR complex
  Acidic Dissociation: 2.455
[2]; Zn(II)-QAR complex
  Acidic Dissociation: 2.558
[3]
  response to Al(III) (spectrum compared to free dye, colour of complex): Weakly Sensitive
  response to Ca(II) (spectrum compared to free dye, colour of complex): Insensitive; also recorded: did not undergo a spectral change
  response to Cd(II) (spectrum compared to free dye, colour of complex): Weakly Sensitive
  response to Co(II) (spectrum compared to free dye, colour of complex): Strongly Sensitive; also recorded: magenta complex
  response to Cr(III) (spectrum compared to free dye, colour of complex): Insensitive
  response to Cu(II) (spectrum compared to free dye, colour of complex): Strongly Sensitive; also recorded: orange complex
  response to Fe(III) (spectrum compared to free dye, colour of complex): Severe aggregation; also recorded: does not appreciably complex; also recorded: Aggregation occurs
  response to Hg(II) (spectrum compared to free dye, colour of complex): transparent complex
  response to K(I) (spectrum compared to free dye, colour of complex): Insensitive; also recorded: did not undergo a spectral change
  response to Mg(II) (spectrum compared to free dye, colour of complex): Insensitive; also recorded: did not undergo a spectral change
  response to Mn(II) (spectrum compared to free dye, colour of complex): Weakly Sensitive; also recorded: does not appreciably complex
  response to Na(I) (spectrum compared to free dye, colour of complex): Insensitive; also recorded: did not undergo a spectral change
  response to Ni(II) (spectrum compared to free dye, colour of complex): Strongly Sensitive; also recorded: orange complex
  response to Pb(II) (spectrum compared to free dye, colour of complex): Insensitive; also recorded: does not appreciably complex
  response to Sn(II) (spectrum compared to free dye, colour of complex): Insensitive; also recorded: does not appreciably complex
  response to Zn(II) (spectrum compared to free dye, colour of complex): Strongly Sensitive; also recorded: orange complex
[4]
  binding selectivity compared with PAR: higher binding selectivity
  spectral sensitivity compared with PAR: higher spectral sensitivity
[5]; [7]
  KF: (1.86 ± 0.03) × 10^13 M^−2
  KD: (5.30 ± 0.10) × 10^−14 M^2
  Kd: 230 nM
[5]; [8]
  KF: (1.85 ± 0.40) × 10^16 M^−2
  KD: (5.40 ± 1.15) × 10^−17 M^2
  log KF: 16.268 M^−2
  Kd: 7.35 nM
[5]; with Hg(II) ion
  KD: (1.03 ± 0.04) × 10^−13 M^2
  KF: (9.68 ± 0.45) × 10^12 M^−2
  log KF: 12.986 M^−2
  Kd: 321 nM
[5]; with Ni(II) ion
  KD: (2.66 ± 0.06) × 10^−13 M^2
  KF: (3.76 ± 0.09) × 10^12 M^−2
  log KF: 12.575 M^−2
  Kd: 516 nM
[5]; with Zn(II) ion
  KD: (3.24 ± 0.03) × 10^−13 M^2
  KF: (3.09 ± 0.05) × 10^12 M^−2
  log KF: 12.490 M^−2
  Kd: 569 nM
[6]; site Quinoline N
  pKa: 2.42
[6]; site o-OH
  pKa: 13
[6]; site p-OH
  pKA: 6.539
  pKa: 6.5
